Measured values as given in US8519154B2, “Method for treatment of bronchial asthma” (Council of Scientific & Industrial Research, priority 2011, dated 2013).
Like-named read-outs stand apart in the source and are kept apart here.

Key:
[1] = Determination of pharmacokinetics in mice; assay type: in vivo, swiss mice
Procedure: Treatment of animal: Healthy swiss mice of both the sexes (25-30) were used. The animals were kept (3/cage) under controlled conditions (temp 26±2° C.; relative humidity 50±5%; 12 h light/dark cycle) and maintained on pelleted rodent diet […]. Ashirwad Industries Ltd. Chandigarh, India). Water was provided ad libitum. Compound I was solubilised in 2% gum acacia by trituration and diluted with normal saline to obtained desired concentration. The compound was administered orally (20 mg/kg BW) or via intravenous route (10 mg/kg bw).
Sampling time: Blood samples were collected at 0, 5, 15 and 30 min, and 1, 2, 4, 6, 8, 16 and 24 hrs post-administration after oral/iv route in pre-labeled heparinised tubes and centrifuged (3500 rpm×10 minutes) to obtain the plasma. A total of 6 animals were used per time point.
(i) Aliquots of plasma (250 ul) were mixed with ethyl acetate (3 ml), vortexed for two minutes (2500 rpm) and centrifuged at 5000 rpm for 10 min. The organic layer was collected and evaporated to dryness using solvent evaporator (Model: SPD 111V, Thermo Electron Corporation, MA). The dried samples were reconstituted in mobile phase for HPLC analysis.
(2) Calibration standards were prepared from aliquots of plasma collected from untreated animals which were spiked with molecule I (0.25 μg-10 μg/ml). […] The extraction efficiency of the molecule from plasma matrix was 90-93%.
HPLC determinations HPLC determinations were done on Thermofinningan chromatograph (Model: SpectraSystem SCM 1000 equipped with quaternary pump P-4000; autosampler AS 3000; UV 6000 LP): diode array detector). Molecule D8 was run under the following conditions:
Column: RP-8 (5 um); Mobile Phase: Acetonitrile:Water (51:49); Wavelength: 272 nm Flow Rate: 1 ml/min; Retention time: 8.035 min; The lower limit of detection (LOD): 3.5 ng/ml; limit of quantitation (LOQ): 10 ng/ml.
Bioavailability indices. A concentration-time curve for Molecule D8 was established and pharmacokinetic parameters (Cmax, Tmax, AUC0-24, Clerance (Cl) and Volume of Distribution (vd) were determined by using a software (PK Solutions version 2.0; Summit Research Services, USA).
Absolute bioavailability was determined using the following formula: AUCoral×doseiv/AUCv×Doseoral.

[2] = Organ distribution of ICB/11/D-8; assay type: in vivo; details: Swiss, mouse, N=4 mice
Procedure: Organ Distribution of ICB/11/D-8 (ug/100 mg tissue, N=4 mice, 50

mice = assay: Charcoal meal transit time; assay type: in vivo
Procedure: […] charcoal suspension (20 ml/kg prepared as a 5% solution in 10% gum acacia) was administered perorally 60 min after D8 administration (perorally). After 30 min, charcoal meal administration small intestines were excised and aligned parallel to a ruler. Ratio of the distance traveled by the charcoal meal to the total length of the small intestine was determined for the control (untreated) and Compound I treated mice [Ali, B. H. Bashir, A A. The effect of alpha 2-receptor agonists and antagonists on gastro-intestinal transit time. Clinical and Experimental Pharmacology and Physiology, 20 (1993) 1-6].

rats = assay: Bile secretion; assay type: in vivo
Procedure: Rats were anaesthetized with urethane (25% w/v; 0.6 ml/100 g bw, ip). A catheter was placed in the jugular vein for Compound I administration. Abdominal cavity was opened by midline incision and the common bile duct was cannulated to measure the biliary secretion which was collected over 2 hours duration. The total bile excreted was compared between control (untreated) and Compound I treated rats [Shetler, T., Bendele, A., Buening, M., Clemens, J., Colbert, W., Deldar, A., Helton, D., Mc Grath J., Shannon, H., Turk, J., Williams, P., General Pharmacology of Loracarbef in Animals. Arzneim-Forsch./Drug Res. 43 (1993) 1-6].

[3] = Crossing of the intestinal barrier; assay type: in vitro ADME
CYP 3A4 (liver) = CYP 3A4 (liver) (Homo sapiens, UniProt P08684); assay: Metabolism by CYP 3A4; assay type: in vitro ADME
Chain of CYP 3A4 (liver) (P08684 whole entry, species assumed): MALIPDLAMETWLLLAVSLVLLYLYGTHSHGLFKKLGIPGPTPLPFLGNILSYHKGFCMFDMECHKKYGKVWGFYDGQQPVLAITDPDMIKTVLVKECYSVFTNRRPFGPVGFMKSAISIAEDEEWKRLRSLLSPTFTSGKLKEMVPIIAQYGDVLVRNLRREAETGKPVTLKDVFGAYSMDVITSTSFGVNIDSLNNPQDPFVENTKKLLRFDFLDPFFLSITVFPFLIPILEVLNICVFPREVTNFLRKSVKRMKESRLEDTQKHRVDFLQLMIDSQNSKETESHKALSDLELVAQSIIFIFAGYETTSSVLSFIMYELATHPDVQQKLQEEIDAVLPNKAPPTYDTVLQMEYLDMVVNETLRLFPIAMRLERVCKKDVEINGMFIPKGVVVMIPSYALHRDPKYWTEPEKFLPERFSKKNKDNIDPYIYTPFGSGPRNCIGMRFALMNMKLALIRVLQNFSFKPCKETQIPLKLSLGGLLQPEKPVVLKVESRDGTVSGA

Lipophilicity = assay type: physicochemical
Plasma binding = assay type: in vitro ADME

COc1cc(C=O)cc2c1[nH]c1ccccc12 [Compound I, 1-methoxy-3-formyl-9H carbazole]
amounts detected in urine ([1]; after 24 hrs): negligible amounts
plasma clearance rate ([1]; mouse, in vivo): good plasma clearance rate
volume of distribution ([1]; mouse, in vivo): volume of distribution is high
intact drug stays in the circulation ([1]; oral administration): ≤ 12 h
concentration at 0.5 hr ([2]; brain, 0.5 hr, read-out: Organ distribution: Brain): 2300 ng/g
concentration at 2 hr ([2]; brain, 2 hr, read-out: Organ distribution: Brain): 26700 ng/g
concentration at 4 hr ([2]; brain, 4 hr, read-out: Organ distribution: Brain): 43300 ng/g
concentration at 12 hr ([2]; brain, 12 hr, read-out: Organ distribution: Brain): 3600 ng/g
concentration at 0.5 hr ([2]; heart, 50 not found, 0.5 hr, read-out: Organ distribution: Heart): 185000 ng/g
concentration at 2 hr ([2]; heart, 2 hr, read-out: Organ distribution: Heart): 263000 ng/g
concentration at 4 hr ([2]; heart, 4 hr, read-out: Organ distribution: Heart): 168000 ng/g
concentration at 12 hr ([2]; heart, 12 hr, read-out: Organ distribution: Heart): 32200 ng/g
concentration at 0.5 h ([2]; intestine, 0.5 hr): 105000 ng/g
concentration at 2 h ([2]; intestine, 2 hr): 168000 ng/g
concentration at 4 h ([2]; intestine, 4 hr): 124000 ng/g
concentration at 12 h ([2]; intestine, 12 hr): 25500 ng/g
concentration at 0.5 hr ([2]; kidneys, 0.5 hr, read-out: Organ distribution: Kidneys): 135000 ng/g
concentration at 2 hr ([2]; kidneys, 2 hr, read-out: Organ distribution: Kidneys): 171000 ng/g
concentration at 4 hr ([2]; kidneys, 4 hr, read-out: Organ distribution: Kidneys): 105000 ng/g
concentration at 12 hr ([2]; kidneys, 12 hr, read-out: Organ distribution: Kidneys): 15800 ng/g
concentration at 0.5 hr ([2]; liver, 0.5 hr, read-out: Organ distribution: Liver): 89500 ng/g
concentration at 2 hr ([2]; liver, 2 hr, read-out: Organ distribution: Liver): 168000 ng/g
concentration at 4 hr ([2]; liver, 4 hr, read-out: Organ distribution: Liver): 110000 ng/g
concentration at 12 hr ([2]; liver, 12 hr, read-out: Organ distribution: Liver): 12500 ng/g
concentration at 2 hr ([2]; lungs, 50 not found, 2 hr, read-out: Organ distribution: Lungs): 273000 ng/g
concentration at 4 hr ([2]; lungs, 50 not found, 4 hr, read-out: Organ distribution: Lungs): 80700 ng/g
concentration at 12 hr ([2]; lungs, 50 not found, 12 hr, read-out: Organ distribution: Lungs): 6700 ng/g
concentration at 0.5 hr ([2]; lungs, 0.5 hr, read-out: Organ distribution: Lungs): 122000 ng/g
concentration at 0.5 hr ([2]; spleen, 50 not found, 0.5 hr, read-out: Organ distribution: Spleen): 123000 ng/g
concentration at 2 hr ([2]; spleen, 50 not found, 2 hr, read-out: Organ distribution: Spleen): 140000 ng/g
concentration at 4 hr ([2]; spleen, 50 not found, 4 hr, read-out: Organ distribution: Spleen): 52500 ng/g
concentration at 12 hr ([2]; spleen, 50 not found, 12 hr, read-out: Organ distribution: Spleen): 9100 ng/g
concentration at 0.5 hr ([2]; stomach, 0.5 hr, read-out: Organ distribution: Stomach): 378000 ng/g
concentration at 2 hr ([2]; stomach, 2 hr, read-out: Organ distribution: Stomach): 689000 ng/g
concentration at 4 hr ([2]; stomach, 4 hr, read-out: Organ distribution: Stomach): 227000 ng/g
concentration at 12 hr ([2]; stomach, 12 hr, read-out: Organ distribution: Stomach): 43300 ng/g
concentration at 0.5 hr ([2]; urine, 0.5 hr, read-out: Organ distribution: Urine/ml): 2600 ng/mL
concentration at 2 hr ([2]; urine, 2 hr, read-out: Organ distribution: Urine/ml): 6560 ng/mL
concentration at 4 hr ([2]; urine, 4 hr, read-out: Organ distribution: Urine/ml): 4070 ng/mL
concentration at 0.5 hr ([2]; male, testes, 0.5 hr, read-out: Organ distribution: Testes): 168000 ng/g
concentration at 2 hr ([2]; male, testes, 2 hr, read-out: Organ distribution: Testes): 313000 ng/g
concentration at 4 hr ([2]; male, testes, 4 hr, read-out: Organ distribution: Testes): 58800 ng/g
concentration at 12 hr ([2]; male, testes, 12 hr, read-out: Organ distribution: Testes): 7800 ng/g
% Transport (Mean ± SEM) (mice; 12.5 mg/kg p.o.): 74.15 ± 3.4%
% Transport (Mean ± SEM) (mice; 25 mg/kg p.o.): 76.6 ± 6.7%
% Transport (Mean ± SEM) (mice; 50 mg/kg p.o.): 77.12 ± 1.49%
change in charcoal powder transporting ratio vs control (mice; 12.5, 25 and 50 mg/kg): no significant change in charcoal powder transporting ratio
Bile (grams ± SEM) After (rats; 25 mg/kg i.v.): 1.390 ± 0.06 grams
Bile (grams ± SEM) Before (rats; 25 mg/kg i.v.): 1.285 ± 0.049 grams
Bile (grams ± SEM) After (rats; 50 mg/kg i.v.): 1.125 ± 0.125 grams
Bile (grams ± SEM) Before (rats; 50 mg/kg i.v.): 1.305 ± 0.145 grams
change in the mass of bile collected (rats; 25 and 50 mg/kg intravenously): no significant change in the mass of bile collected
crosses the intestinal barrier [3]: largely by passive diffusion
metabolism (CYP 3A4 (liver)): metabolized by CYP 3A4 (liver)
lipophilicity (Lipophilicity): highly lipophilic
plasma binding (Plasma binding): high plasma binding
